In patent US9850283B2, “Macrocyclic inhibitors of the PD-1/PD-L1 and CD80(B7-1)/PD-L1 protein/protein interactions” (BRISTOL-MYERS SQUIBB COMPANY, priority 2013, dated 2017):
Like-named read-outs stand apart in the source and are kept apart here. Each block holds one molecule with its values, some of them ahead of it. Positions of bridges follow the written chain, without caps; N, C: chain ends. Non-standard residues stand in square brackets, D forms with d. Residues, ends and D or L forms follow the SMILES beside them. ξ: configuration not given here. Phe(4-Cl) = N[C@@H](Cc1ccc(Cl)cc1)C(=O)O; Bta = N[C@@H](Cc1csc2ccccc12)C(=O)O; Hyp = O=C(O)[C@@H]1C[C@@H](O)CN1; NMeNle = CCCC[C@H](NC)C(=O)O; NMeA = CN[C@@H](C)C(=O)O; Nle = CCCC[C@H](N)C(=O)O; ξP = O=C(O)C1CCCN1; Sar = CNCC(=O)O

Molecular target: T1, Human PD-L1/PD-1 (Homo sapiens, UniProt Q9NZQ7)
T1 construct: made in house; host or cells: HEK293T
Assay: HTRF PD-1-Ig/PD-L1-His binding assay (human PD-L1)
Source text: The ability of the macrocyclic peptides of the present disclosure to bind to PD-L1 was investigated using a PD-1/PD-L1 Homogenous Time-Resolved Fluorescence (HTRF) binding assay.
Homogenous Time-Resolved Fluorescence (HTRF) Assays of Binding of Soluble PD-1 to Soluble PD-L1. Soluble PD-1 and soluble PD-L1 refers to proteins with carboxyl-end truncations that remove the transmembrane-spanning regions and are fused to heterologous sequences, specifically the Fc portion of the human immunoglobuling G sequence (Ig) or the hexahistidine epitope tag (His). All binding studies were performed in an HTRF assay buffer consisting of dPBS supplemented with 0.1% (w/v) bovine serum albumin and 0.05% (v/v) Tween-20. […] PD-L1 fusion proteins from either human, cynomologous macaques, or mouse were used. HTRF detection was achieved using europium crypate-labeled anti-Ig monoclonal antibody (1 nM final) and allophycocyanin (APC) labeled anti-His monoclonal antibody (20 nM final). Antibodies were diluted in HTRF detection buffer and 5 μl was dispensed on top of binding reaction.

[1] = Table 8, Compound No. 1 variant macrocyclic peptides, read-out: HTRF Human PD-L1/PD-1 Binding Assay IC50

T1 sequence (Q9NZQ7 with tags, fused parts or gaps): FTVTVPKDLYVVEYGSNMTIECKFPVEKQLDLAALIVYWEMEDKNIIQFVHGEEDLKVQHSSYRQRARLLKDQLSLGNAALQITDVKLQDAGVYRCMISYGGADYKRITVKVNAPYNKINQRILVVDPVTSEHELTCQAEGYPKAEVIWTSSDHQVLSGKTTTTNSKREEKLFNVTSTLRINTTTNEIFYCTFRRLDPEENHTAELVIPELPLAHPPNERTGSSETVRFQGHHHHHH

- IC50 [1]: 36 nM
Compound: CCCC[C@@H]1NC(=O)[C@H](Cc2c[nH]c3ccccc23)NC(=O)[C@H](CO)NC(=O)[C@H](Cc2c[nH]c3ccccc23)NC(=O)CN(C)C(=O)[C@H](CC(C)C)NC(=O)[C@H](Cc2cnc[nH]2)NC(=O)C2CCCN2C(=O)[C@H](CC(N)=O)NC(=O)[C@H](C)N(C)C(=O)[C@H](Cc2ccccc2)NC(=O)CSC[C@@H](C(=O)NCC(N)=O)NC(=O)[C@H](CCCNC(=N)N)NC(=O)[C@H](CCCC)N(C)C1=O (stereo partly drawn) [Compound No. 18] ({CH2CO}-F[NMeA]N[ξP]HL[Sar]WSW[Nle][NMeNle]RCG-NH2; thioether N-14)

- IC50 [1]: 21 nM
Compound: CCCC[C@H]1C(=O)N(C)[C@@H](C)C(=O)N[C@@H](CCCNC(=N)N)C(=O)N[C@H](C(=O)NCC(N)=O)CSCC(=O)N[C@@H](Cc2ccccc2)C(=O)N(C)[C@@H](C)C(=O)N[C@@H](CC(N)=O)C(=O)N2CCCC2C(=O)N[C@@H](Cc2cnc[nH]2)C(=O)N[C@@H](CC(C)C)C(=O)N(C)CC(=O)N[C@@H](Cc2c[nH]c3ccccc23)C(=O)N[C@@H](CO)C(=O)N[C@@H](Cc2c[nH]c3ccccc23)C(=O)N1C (stereo partly drawn) [Compound No. 21] ({CH2CO}-F[NMeA]N[ξP]HL[Sar]WSW[NMeNle][NMeA]RCG-NH2; thioether N-14)

- IC50 (read-out: HTRF IC50 value): 5.05 nM
Compound: CCCC[C@H]1C(=O)N(C)[C@@H](CCCC)C(=O)N[C@@H](CCCNC(=N)N)C(=O)N[C@H](C(=O)NCC(N)=O)CSCC(=O)N[C@@H](Cc2ccc(Cl)cc2)C(=O)N(C)[C@@H](C)C(=O)N[C@@H](CC(N)=O)C(=O)N2CCC[C@H]2C(=O)N[C@@H](Cc2cnc[nH]2)C(=O)N[C@@H](CC(C)C)C(=O)N2C[C@H](O)C[C@H]2C(=O)N[C@@H](Cc2c[nH]c3ccccc23)C(=O)N[C@@H](CO)C(=O)N[C@@H](Cc2csc3ccccc23)C(=O)N1C [Example 1125] ({CH2CO}-[Phe(4-Cl)][NMeA]NPHL[Hyp]WS[Bta][NMeNle][NMeNle]RCG-NH2; thioether N-14)

The remaining lines, values behind:

Compound: CCCC[C@H]1C(=O)N(C)CC(=O)N[C@@H](CC(=O)O)C(=O)N[C@@H](C(C)C)C(=O)N(C)[C@@H](Cc2ccccc2)C(=O)N[C@@H](C)C(=O)N(C)CC(=O)N[C@@H](Cc2c[nH]c3ccccc23)C(=O)N[C@@H](Cc2ccc(O)cc2)C(=O)N[C@@H](CC(C)C)C(=O)N[C@H](C(=O)NCC(N)=O)CSCC(=O)N[C@@H](Cc2ccccc2)C(=O)N(C)[C@@H](Cc2ccccc2)C(=O)N1C [Compound No. 83] (HELM PEPTIDE1{[O=C(C[*:3])[*:2]].F.[meF].[CCCC[C@@H](C(=O)[*:2])N(C)[*:1]].[Sar].D.V.[meF].A.[Sar].W.Y.L.C.G.[am]}$PEPTIDE1,PEPTIDE1,1:R3-14:R3$$$V2.0)
- IC50 (Table 9, Compound No. 71 variant macrocyclic peptides, read-out: HTRF Human PD-L1/PD-1 Binding Assay IC50): 35 nM

Compound: CC[C@H](C)[C@@H]1NC(=O)[C@H](CC(C)C)NC(=O)[C@H](Cc2ccccc2)NC(=O)CSC[C@@H](C(=O)NCC(N)=O)NC(=O)[C@H](CCCNC(=N)N)NC(=O)[C@H](Cc2ccccc2)NC(=O)[C@H](C(C)C)NC(=O)[C@H](CCCNC(=N)N)NC(=O)[C@H](CC(=O)O)NC(=O)[C@H](CC(C)C)NC(=O)[C@H]([C@@H](C)CC)NC(=O)[C@H](C(C)C)NC1=O [Compound No. 109] (HELM PEPTIDE1{[O=C(C[*:3])[*:2]].F.L.I.V.I.L.D.R.V.F.R.C.G.[am]}$PEPTIDE1,PEPTIDE1,1:R3-13:R3$$$V2.0)
- IC50 (Table 7, Compound No. 99 variant macrocyclic peptides, read-out: HTRF Human PD-L1/PD-1 Binding Assay IC50): > 20000 nM

Compound: CCCC[C@H]1C(=O)N(C)CC(=O)N[C@@H](CC(=O)O)C(=O)N[C@@H](C(C)C)C(=O)N(C)[C@@H](Cc2ccccc2)C(=O)N[C@@H](Cc2ccc(O)cc2)C(=O)N(C)CC(=O)N[C@@H](Cc2c[nH]c3ccccc23)C(=O)N[C@@H](Cc2ccc(O)cc2)C(=O)N[C@@H](CC(C)C)C(=O)N[C@H](C(=O)NCC(N)=O)CSCC(=O)N[C@@H](Cc2ccccc2)C(=O)N(C)[C@@H](Cc2cnc[nH]2)C(=O)N1C [Example 3056-B] (HELM PEPTIDE1{[O=C(C[*:3])[*:2]].F.[meH].[CCCC[C@@H](C(=O)[*:2])N(C)[*:1]].[Sar].D.V.[meF].Y.[Sar].W.Y.L.C.G.[am]}$PEPTIDE1,PEPTIDE1,1:R3-14:R3$$$V2.0)
- IC50 (cluster symbol, read-out: HTRF IC50 cluster): 6.76 to 30.3 nM
